Data on 14 compounds can be found in publication PMC11378028 (RSC Advances, 2024).

Converted amounts (≈) assume the structure as drawn.

One assay deals with S. aureus ATCC 29213. Kind of assay: MIC, broth microdilution. It counts as cell-based, Staphylococcus aureus. Particulars: Staphylococcus aureus, ATCC29213, read-out: MIC S. aureus ATCC 29213, broth microdilution.
The next assay relates to E. coli ATCC 25922. The assay is described as follows: MIC, broth microdilution. It counts as cell-based. The following applies: Escherichia coli, ATCC25922, read-out: MIC E. coli ATCC 25922.
Another assay relates to K. aerogenes ATCC 13408. The assay is described as follows: MIC, broth microdilution. It counts as cell-based. Particulars: Klebsiella aerogenes, ATCC13408, read-out: MIC K. aerogenes ATCC 13408.
The next assay has as its system P. aeruginosa ATCC 27853. Kind of assay: MIC, broth microdilution. The assay is classed as cell-based. Particulars: Pseudomonas aeruginosa, ATCC27853, read-out: MIC P. aeruginosa ATCC 27853.
Assay [1] has as its system K. pneumoniae ATCC 700603. The assay is described as follows: MIC, broth microdilution. It counts as cell-based. Particulars: Klebsiella pneumoniae, ATCC700603, read-out: MIC K. pneumoniae ATCC 700603.
In another assay the test system is A. baumannii ATCC 19606. The assay is described as follows: MIC, broth microdilution. It counts as cell-based. The following applies: Acinetobacter baumannii, ATCC19606, read-out: MIC A. baumannii ATCC 19606.
The target of a further assay is E. coli DNA gyrase (Escherichia coli, UniProt P0AES6). The assay is described as follows: DNA gyrase supercoiling plate assay. It counts as biochemical. Particulars: for remaining activity at 0.1 µM / remaining activity at 1 µM: read-out: RA (residual activity) E. coli gyrase; for IC50: IC50 E. coli gyrase, supercoiling assay.
The target in assay [2] is human DNA topoisomerase IIα (Homo sapiens, UniProt P11388). The assay is described as follows: human DNA topoisomerase IIα inhibition. It counts as biochemical. The following applies: read-out: RA (residual activity) Human topo IIα.
Chain of human DNA topoisomerase IIα (P11388 whole entry): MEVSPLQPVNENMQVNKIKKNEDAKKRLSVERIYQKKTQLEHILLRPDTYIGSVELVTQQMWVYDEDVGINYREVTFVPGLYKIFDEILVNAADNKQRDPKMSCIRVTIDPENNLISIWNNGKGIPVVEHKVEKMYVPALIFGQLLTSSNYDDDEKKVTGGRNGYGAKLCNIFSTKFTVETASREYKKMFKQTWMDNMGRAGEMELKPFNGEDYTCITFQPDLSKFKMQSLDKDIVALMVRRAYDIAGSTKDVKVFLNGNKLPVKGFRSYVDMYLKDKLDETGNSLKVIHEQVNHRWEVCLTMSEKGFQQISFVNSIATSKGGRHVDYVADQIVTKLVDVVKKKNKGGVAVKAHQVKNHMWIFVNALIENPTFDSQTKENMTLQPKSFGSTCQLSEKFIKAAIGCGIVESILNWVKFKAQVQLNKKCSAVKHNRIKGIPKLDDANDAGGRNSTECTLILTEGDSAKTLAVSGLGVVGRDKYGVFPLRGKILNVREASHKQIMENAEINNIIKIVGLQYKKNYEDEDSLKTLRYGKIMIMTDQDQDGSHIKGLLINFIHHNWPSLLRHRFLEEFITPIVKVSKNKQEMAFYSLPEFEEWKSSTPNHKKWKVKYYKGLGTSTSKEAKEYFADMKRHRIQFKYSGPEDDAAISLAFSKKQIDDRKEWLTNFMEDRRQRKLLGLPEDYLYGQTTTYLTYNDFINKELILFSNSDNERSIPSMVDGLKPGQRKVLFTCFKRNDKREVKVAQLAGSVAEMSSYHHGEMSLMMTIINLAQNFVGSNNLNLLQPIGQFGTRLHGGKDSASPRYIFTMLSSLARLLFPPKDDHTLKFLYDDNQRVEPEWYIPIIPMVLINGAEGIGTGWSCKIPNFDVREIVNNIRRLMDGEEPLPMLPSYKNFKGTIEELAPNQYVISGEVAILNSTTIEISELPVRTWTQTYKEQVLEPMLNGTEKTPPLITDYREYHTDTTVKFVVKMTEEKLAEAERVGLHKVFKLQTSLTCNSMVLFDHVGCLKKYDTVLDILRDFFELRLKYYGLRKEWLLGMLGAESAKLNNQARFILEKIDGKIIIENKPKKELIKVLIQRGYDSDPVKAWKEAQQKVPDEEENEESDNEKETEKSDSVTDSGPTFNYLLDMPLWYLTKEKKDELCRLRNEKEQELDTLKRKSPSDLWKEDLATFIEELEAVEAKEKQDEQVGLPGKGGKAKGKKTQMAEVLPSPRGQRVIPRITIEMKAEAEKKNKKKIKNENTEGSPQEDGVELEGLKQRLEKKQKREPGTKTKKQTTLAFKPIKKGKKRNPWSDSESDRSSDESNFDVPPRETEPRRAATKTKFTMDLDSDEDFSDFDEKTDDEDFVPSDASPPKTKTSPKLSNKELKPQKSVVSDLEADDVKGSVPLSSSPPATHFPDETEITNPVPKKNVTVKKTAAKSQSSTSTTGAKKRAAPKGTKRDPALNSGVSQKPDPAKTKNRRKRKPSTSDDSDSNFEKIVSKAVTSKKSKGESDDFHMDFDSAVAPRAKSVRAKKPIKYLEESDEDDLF
For the next assay, the target named is E. coli topoisomerase IV (Escherichia coli, UniProt P20083). Kind of assay: topoisomerase IV relaxation plate assay. The assay is classed as biochemical. Particulars: for remaining activity at 1 µM / remaining activity at 10 µM: read-out: RA (residual activity) E. coli topo IV.
Chain of E. coli topoisomerase IV (P20083 whole entry): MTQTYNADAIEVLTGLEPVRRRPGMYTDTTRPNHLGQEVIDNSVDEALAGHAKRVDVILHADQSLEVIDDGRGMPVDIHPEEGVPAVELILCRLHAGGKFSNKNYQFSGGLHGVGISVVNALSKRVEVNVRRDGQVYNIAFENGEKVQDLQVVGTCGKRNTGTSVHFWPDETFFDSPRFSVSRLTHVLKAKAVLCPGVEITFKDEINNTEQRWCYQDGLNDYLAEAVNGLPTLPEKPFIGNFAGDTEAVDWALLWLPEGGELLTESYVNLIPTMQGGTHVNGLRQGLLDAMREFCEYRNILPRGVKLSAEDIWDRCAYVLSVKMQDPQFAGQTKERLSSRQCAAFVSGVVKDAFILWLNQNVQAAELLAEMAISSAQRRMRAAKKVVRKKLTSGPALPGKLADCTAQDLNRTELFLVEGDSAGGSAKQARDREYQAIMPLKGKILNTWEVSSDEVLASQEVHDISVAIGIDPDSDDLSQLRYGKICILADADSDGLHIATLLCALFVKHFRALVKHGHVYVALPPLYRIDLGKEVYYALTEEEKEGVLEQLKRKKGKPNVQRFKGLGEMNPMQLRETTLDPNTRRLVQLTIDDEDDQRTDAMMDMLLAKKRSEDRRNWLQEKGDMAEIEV
Chain of E. coli topoisomerase IV (P0AFI2 whole entry partner): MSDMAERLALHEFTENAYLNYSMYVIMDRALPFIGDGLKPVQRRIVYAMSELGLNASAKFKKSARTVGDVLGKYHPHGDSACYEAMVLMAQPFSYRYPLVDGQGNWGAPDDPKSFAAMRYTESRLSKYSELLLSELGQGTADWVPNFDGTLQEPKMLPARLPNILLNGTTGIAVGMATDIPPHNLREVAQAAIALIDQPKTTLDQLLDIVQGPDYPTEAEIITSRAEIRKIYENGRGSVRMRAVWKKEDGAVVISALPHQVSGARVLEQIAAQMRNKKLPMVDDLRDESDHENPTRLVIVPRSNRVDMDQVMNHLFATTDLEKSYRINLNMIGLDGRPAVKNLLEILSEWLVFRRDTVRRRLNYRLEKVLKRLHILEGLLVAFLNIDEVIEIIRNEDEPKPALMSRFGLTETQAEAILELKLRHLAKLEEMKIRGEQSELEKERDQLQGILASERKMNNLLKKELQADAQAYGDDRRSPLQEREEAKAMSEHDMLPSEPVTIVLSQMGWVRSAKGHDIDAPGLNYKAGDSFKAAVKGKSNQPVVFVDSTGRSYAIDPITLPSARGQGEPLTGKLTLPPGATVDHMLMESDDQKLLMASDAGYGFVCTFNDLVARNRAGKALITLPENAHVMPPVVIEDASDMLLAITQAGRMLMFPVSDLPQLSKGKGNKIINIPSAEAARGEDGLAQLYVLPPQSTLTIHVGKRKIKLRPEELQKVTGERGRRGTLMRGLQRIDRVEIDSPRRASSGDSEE
In assay [3] the test system is S. aureus ATCC 43300 (MRSA). Kind of assay: MIC, broth microdilution. The assay is classed as cell-based. Particulars: Staphylococcus aureus, ATCC43300|MRSA, read-out: MIC S. aureus ATCC 43300 (MRSA).
In a further assay the test system is E. faecalis ATCC 29212. Kind of assay: MIC, broth microdilution. It counts as cell-based. Particulars: Enterococcus faecalis, ATCC29212, read-out: MIC E. faecalis ATCC 29212.
Assay [4] concerns E. spp. cloacae ATCC 13047. Kind of assay: MIC, broth microdilution. The assay is classed as cell-based. The following applies: read-out: MIC E. spp. cloacae ATCC 13047.
The subject of the next assay is A. baumannii ATCC 17978. Kind of assay: MIC, broth microdilution. It counts as cell-based. Particulars: Acinetobacter baumannii, ATCC17978, read-out: MIC A. baumannii ATCC 17978.
Assay [5] deals with S. aureus ATCC 700699 (VISA). Kind of assay: MIC, broth microdilution. The assay is classed as cell-based. Particulars: Staphylococcus aureus, ATCC700699|VISA, read-out: MIC S. aureus ATCC 700699 (VISA).
The next assay has as its system K. pneumoniae ATCC 10031. Kind of assay: MIC, broth microdilution. It counts as cell-based. Particulars: Klebsiella pneumoniae, ATCC10031, read-out: MIC K. pneumoniae ATCC 10031.

`Cc1[nH]c(C(=O)Nc2ccc(-c3n[nH]c(=O)o3)cc2N2CCC[C@H](NC(=O)OC(C)(C)C)C2)c(Cl)c1Cl` [Compound 22c, tert-Butyl (S)-(1-(2-(3,4-dichloro-5-methyl-1H-pyrrole-2-carboxamido)-5-(5-oxo-4,5-dihydro-1,3,4-oxadiazol-2-yl)phenyl)piperidin-3-yl)carbamate]: the MIC was 32 µg/mL (≈ 58 µM) in the assay on S. aureus ATCC 29213; > 32 µg/mL with E. coli ATCC 25922; > 32 µg/mL in the assay with K. aerogenes ATCC 13408; > 32 µg/mL in the assay with P. aeruginosa ATCC 27853; > 32 µg/mL in [1]; > 32 µg/mL in the assay on A. baumannii ATCC 19606. Besides, at E. coli DNA gyrase, the remaining activity at 0.1 µM is 90%.
Take `Cc1[nH]c(C(=O)Nc2ccc(C(=O)O)cc2N2CCCC(CNC(=O)OC(C)(C)C)C2)c(Cl)c1Cl` (stereo not shown) [Compound 18i, 3-(3-(((tert-Butoxycarbonyl)amino)methyl)piperidin-1-yl)-4-(3,4-dichloro-5-methyl-1H-pyrrole-2-carboxamido)benzoic acid]: the MIC (with E. coli ATCC 25922; in the assay on K. aerogenes ATCC 13408; in the assay with P. aeruginosa ATCC 27853; in assay [1]; in the assay on A. baumannii ATCC 19606) was > 32 µg/mL in each case. Further, the remaining activity at 100 µM in assay [2] is 128%. For the same compound, at E. coli DNA gyrase, the remaining activity at 0.1 µM was 89%.
`Cc1[nH]c(C(=O)Nc2ccc(C(=O)NCc3n[nH]c(=O)o3)cc2N2CCNCC2)c(Cl)c1Cl` [Compound 14, 4-(2-(3,4-Dichloro-5-methyl-1H-pyrrole-2-carboxamido)-5-(((5-oxo-4,5-dihydro-1,3,4-oxadiazol-2-yl)methyl)carbamoyl)phenyl)piperazin-1-ium chloride]: the remaining activity at 10 µM in assay [2] stood at 111%. Further, the IC50 on E. coli DNA gyrase is ~20 nM.
Regarding `Cc1[nH]c(C(=O)Nc2ccc(-c3n[nH]c(=O)o3)cc2N2CCN(C(=O)OC(C)(C)C)CC2)c(Cl)c1Cl` [Compound 22a, tert-Butyl 4-(2-(3,4-dichloro-5-methyl-1H-pyrrole-2-carboxamido)-5-(5-oxo-4,5-dihydro-1,3,4-oxadiazol-2-yl)phenyl)piperazine-1-carboxylate], in [2], the remaining activity at 100 µM worked out at 100%. The remaining activity at 1 µM at E. coli topoisomerase IV came out at 104%. In addition, the IC50 at E. coli DNA gyrase was determined as 59 nM.
In the case of `Cc1[nH]c(C(=O)Nc2ccc(C(=O)O)cc2N2CCN(c3ccccc3)CC2)c(Cl)c1Cl` [Compound 18h, 4-(3,4-Dichloro-5-methyl-1H-pyrrole-2-carboxamido)-3-(4-phenylpiperazin-1-yl)benzoic acid], the minimal inhibitory concentration (MIC) (in assay [3]; in the assay on E. faecalis ATCC 29212; in the assay with S. aureus ATCC 29213; in assay [4]; in the assay with E. coli ATCC 25922; in the assay with P. aeruginosa ATCC 27853) was > 64 µg/mL in each case. The MIC (in the assay with A. baumannii ATCC 17978; in assay [5]; in the assay with K. pneumoniae ATCC 10031) was > 64 µg/mL in each case. The remaining activity at 10 µM at E. coli topoisomerase IV came out at 85%.
Take `COC(=O)c1ccc(NC(=O)c2[nH]c(C)c(Cl)c2Cl)c(N2CCCC(CN)C2)c1.Cl` (stereo not shown) [Compound 19i, (1-(2-(3,4-Dichloro-5-methyl-1H-pyrrole-2-carboxamido)-5-(methoxycarbonyl)phenyl)piperidin-3-yl)methanaminium chloride]: the MIC in assay [3] is 2 µg/mL; with S. aureus ATCC 29213, 8 µg/mL; in assay [4], > 64 µg/mL; with E. coli ATCC 25922 it was 4 µg/mL; in the assay on K. aerogenes ATCC 13408, > 32 µg/mL; with P. aeruginosa ATCC 27853 it was > 32 µg/mL. For the same compound, the MIC in the assay with A. baumannii ATCC 17978 is 8 µg/mL; in [5] it was 1 µg/mL; in assay [1], > 32 µg/mL; with A. baumannii ATCC 19606 it was 8 µg/mL; in the assay on K. pneumoniae ATCC 10031 it was 8 µg/mL. The IC50 at E. coli topoisomerase IV came out at 533 nM; on E. coli DNA gyrase, 14.2 nM.
Regarding `Cc1[nH]c(C(=O)N(Cc2ccccc2)c2ccc(-c3n[nH]c(=O)o3)cc2)c(Cl)c1Cl` [Compound 33, N-Benzyl-3,4-dichloro-5-methyl-N-(4-(5-oxo-4,5-dihydro-1,3,4-oxadiazol-2-yl)phenyl)-1H-pyrrole-2-carboxamide], the remaining activity at 100 µM in [2] worked out at 92%. Moreover, the remaining activity at 1 µM on E. coli DNA gyrase came to 81%.
On to `Cc1[nH]c(C(=O)Nc2ccc(C(=O)O)cc2N2CCC[C@H](N)C2)c(Cl)c1Cl.Cl` [Compound 20c, (S)-1-(5-Carboxy-2-(3,4-dichloro-5-methyl-1H-pyrrole-2-carboxamido)phenyl)piperidin-3-aminium chloride], for which the MIC in [3] was > 64 µg/mL; with S. aureus ATCC 29213, > 32 µg/mL; in assay [4], > 64 µg/mL; in the assay on E. coli ATCC 25922, > 32 µg/mL; with K. aerogenes ATCC 13408, > 32 µg/mL; in the assay on P. aeruginosa ATCC 27853, > 32 µg/mL. For the same compound, the MIC is > 64 µg/mL in the assay with A. baumannii ATCC 17978; > 64 µg/mL in assay [5]; > 32 µg/mL in assay [1]; > 32 µg/mL with A. baumannii ATCC 19606; > 64 µg/mL in the assay with K. pneumoniae ATCC 10031. Besides, the remaining activity at 1 µM on E. coli topoisomerase IV was determined as 78%. Further, on E. coli DNA gyrase, the IC50 is 134 nM.
Regarding `Cc1[nH]c(C(=O)Nc2ccc(C(=O)NCC(=O)O)cc2N2CC[C@@H](N)C2)c(Cl)c1Cl` [Compound 10c, (R)-1-(5-((Carboxymethyl)carbamoyl)-2-(3,4-dichloro-5-methyl-1H-pyrrole-2-carboxamido)phenyl)pyrrolidin-3-aminium chloride], in assay [2], the remaining activity at 40 µM was determined as 112%. Further, the 50% inhibitory concentration (IC50) against E. coli DNA gyrase was ~20 nM.
On to `Cc1[nH]c(C(=O)Nc2ccc(C(=O)O)cc2N2CCC[C@H](NC(=O)OC(C)(C)C)C2)c(Cl)c1Cl` [Compound 18c, (S)-3-(3-((tert-Butoxycarbonyl)amino)piperidin-1-yl)-4-(3,4-dichloro-5-methyl-1H-pyrrole-2-carboxamido)benzoic acid], for which the MIC (in the assay on E. coli ATCC 25922; in the assay with K. aerogenes ATCC 13408; with P. aeruginosa ATCC 27853; in assay [1]; in the assay with A. baumannii ATCC 19606) was > 32 µg/mL throughout. Moreover, on E. coli DNA gyrase, the remaining activity at 1 µM was 67%.
Regarding `Cc1[nH]c(C(=O)Nc2ccc(C(=O)NCC(=O)O)cc2N2CCNCC2)c(Cl)c1Cl` [Compound 10a, 4-(5-((Carboxymethyl)carbamoyl)-2-(3,4-dichloro-5-methyl-1H-pyrrole-2-carboxamido)phenyl)piperazin-1-ium chloride], the remaining activity at 10 µM in [2] was found to be 78%. The remaining activity at 1 µM at E. coli topoisomerase IV was found to be 93%.
As to `Cc1[nH]c(C(=O)Nc2ccc(-c3n[nH]c(=O)o3)cc2OCc2ccccc2)c(Cl)c1Cl` [Compound 39, N-(2-(Benzyloxy)-4-(5-oxo-4,5-dihydro-1,3,4-oxadiazol-2-yl)phenyl)-3,4-dichloro-5-methyl-1H-pyrrole-2-carboxamide], the minimum inhibitory concentration (MIC) (in [3]; in the assay with E. faecalis ATCC 29212; in the assay with S. aureus ATCC 29213; in assay [4]; in the assay with E. coli ATCC 25922; with P. aeruginosa ATCC 27853) was > 32 µg/mL throughout. In addition, the MIC (in the assay with A. baumannii ATCC 17978; in assay [5]; in the assay with K. pneumoniae ATCC 10031) was > 32 µg/mL in each case. The remaining activity at 100 µM in assay [2] is 104%. In addition, the remaining activity at 1 µM at E. coli topoisomerase IV was 101%.
Regarding `Cc1[nH]c(C(=O)Nc2ccc(-c3n[nH]c(=O)o3)cc2N2CCOC(C)C2)c(Cl)c1Cl` (stereo not shown) [Compound 22f, 3,4-Dichloro-5-methyl-N-(2-(2-methylmorpholino)-4-(5-oxo-4,5-dihydro-1,3,4-oxadiazol-2-yl)phenyl)-1H-pyrrole-2-carboxamide], the MIC in assay [3] was > 64 µg/mL; in the assay with E. faecalis ATCC 29212, 1 µg/mL (≈ 2.21 µM); with S. aureus ATCC 29213, > 64 µg/mL; in [4], > 64 µg/mL; in the assay on E. coli ATCC 25922, > 64 µg/mL; with P. aeruginosa ATCC 27853, > 64 µg/mL. Moreover, the MIC in the assay on A. baumannii ATCC 17978 and in the assay on K. pneumoniae ATCC 10031 was > 64 µg/mL throughout. For the same compound, the remaining activity at 100 µM in [2] was 98%.
`Cc1[nH]c(C(=O)Nc2ccc(C(=O)O)cc2NC2CCNCC2)c(Cl)c1Cl.Cl` [Compound 20d, 4-((5-Carboxy-2-(3,4-dichloro-5-methyl-1H-pyrrole-2-carboxamido)phenyl)amino)piperidin-1-ium chloride]: the minimal inhibitory concentration (MIC) (in assay [3]; in the assay with E. faecalis ATCC 29212; with S. aureus ATCC 29213; in assay [4]; in the assay on E. coli ATCC 25922; in the assay on P. aeruginosa ATCC 27853) was > 64 µg/mL each time. Further, the MIC (in the assay with A. baumannii ATCC 17978; in assay [5]; in the assay with K. pneumoniae ATCC 10031) was > 64 µg/mL throughout. Also, the remaining activity at 10 µM at E. coli topoisomerase IV was determined as 89%.
